Patent publication US20140044655A1, “NOVEL ACTIVATOR PEPTIDES FOR SYNTHESIZING EXTRACELLULAR MATRIX PROTEINS, AND COSMETIC COMPOSITIONS INCLUDING SAME” (ISP INVESTMENTS INC., priority 2011, published 2014)
Where no end group is shown, it is not given here.

Legend:
Format in all cases: cell-based
[1] = system: hyaluronic acid; assay: Specific labeling of hyaluronic acid in human fibroblast cultures (epifluorescence); conditions: human dermal fibroblasts; peptide 0.5%, 1% and/or 3% (stock solution 40 mg/kg); 24, 48 and/or 72 hours; vs control
Experimental: (§1) The objective of this study is to determine the influence of the peptides SEQ ID NO: 4 and NO: 5 and the peptide SEQ ID NO: 4 on the expression of the following extracellular matrix proteins: collagen I, collagen III, pro-collagen, fibronectin and hyaluronic acid in human fibroblasts. For this, specific labelings were performed on normal human fibroblast cultures obtained from the dermis.
(§2) Human fibroblasts in culture are treated with the peptide SEQ ID NO: 5 or the peptide SEQ ID NO: 4 at a final concentration of 0.5%, 1% and/or 3% (based on a stock solution at 40 mg/kg), for 24, 48 and/or 72 hours. The cells are then washed, fixed with cold methanol for 4 minutes at 4° C. (for the collagen I, collagen III and hyaluronic acid labelings) or with formaldehyde at 3.7% for 10 minutes at room temperature (for the pro-collagen and fibronectin labelings). The cells are incubated in the presence of a specific rabbit collagen I polyclonal antibody (Rockland, Ref: 600-401-103-0.5), a specific rabbit collagen III polyclonal antibody (Rockland, Ref: 600-401-105-0.5), a specific rat pro-collagen polyclonal antibody (Millipore, Ref: MAB1912), a specific rabbit fibronectin polyclonal antibody (Sigma, Ref: F-3648), then an anti-rabbit secondary antibody coupled with a fluorochrome (Invitrogen, Ref: A21206) or anti-rat coupled with a fluorochrome (Invitrogen, A11006). […]

[2] = system: collagen III; assay: Specific labeling of collagen III in human fibroblast cultures (epifluorescence); conditions: human dermal fibroblasts; peptide 0.5%, 1% and/or 3% (stock solution 40 mg/kg); 24, 48 and/or 72 hours; vs control
Experimental: as §1, §2

[3] = system: pro-collagen; assay: Specific labeling of pro-collagen in human fibroblast cultures (epifluorescence); conditions: human dermal fibroblasts; peptide 0.5%, 1% and/or 3% (stock solution 40 mg/kg); 24, 48 and/or 72 hours; vs control
Experimental: as §1, §2

[4] = system: fibronectin; assay: Specific labeling of fibronectin in human fibroblast cultures (epifluorescence); conditions: human dermal fibroblasts; peptide 0.5%, 1% and/or 3% (stock solution 40 mg/kg); 24, 48 and/or 72 hours; vs control
Experimental: as §1, §2

[5] = system: collagen I; assay: Specific labeling of collagen I in human fibroblast cultures (epifluorescence); conditions: human dermal fibroblasts; peptide 0.5%, 1% and/or 3% (stock solution 40 mg/kg); 24, 48 and/or 72 hours; vs control
Experimental: as §1, §2

[6] = system: collagen III; assay: Collagen III immunolabeling in human skin samples cultivated ex vivo; conditions: topical 0.5%, 1% or 3% (stock solution 40 mg/kg), 24, 48 and/or 72 hours
Experimental: (§3) The objective of this study is to determine the influence of the peptide SEQ ID NO: 5 on the expression of the following extracellular matrix proteins: collagen I, collagen III, pro-collagen, fibronectin and hyaluronic acid in the human skin. For this, specific labelings were performed on human skin samples cultivated ex vivo.
(§4) Human skin samples are placed in culture at the air/liquid interface. The peptide SEQ ID NO: 5 is applied topically on the samples at final concentrations of 0.5%, 1% or 3%, (using a stock solution at 40 mg/kg) then the samples are incubated for 24, 48 and/or 72 hours at 37° C.
(§5) These skin samples are then fixed with formaldehyde then embedded in paraffin or fixed and embedded in OCT then frozen at −20° C. Sections with a thickness of 4 μm are then produced (6 μm for cold sections).
(§6) The labelings of the collagen I and the collagen III, on the samples embedded in paraffin, are performed after unmasking specific sites. The immunolabelings are performed using a specific rabbit collagen I polyclonal antibody (Rockland, Ref: 600-401-103-0.5), a specific rabbit collagen III polyclonal antibody (Rockland, Ref: 600-401-105-0.5), then an anti-rabbit secondary antibody coupled with a fluorochrome (Invitrogen, Ref: A21206). […]

[7] = system: senescent fibroblasts (β-galactosidase activity); assay: Reversal of senescence induced by FOXO3a siRNA in human fibroblasts (β-galactosidase, X-Gal staining); conditions: human fibroblasts treated with FOXO3a siRNA 25 nM; peptide 1% (stock solution 40 mg/kg); 48 hours
From the text: The objective of this study is to determine the influence of the peptide SEQ ID NO: 5 on senescent fibroblasts, of which the senescence has been induced by the extinction of the FOXO3a gene. These cells overexpress beta-galactosidase, in relation to their senescent state.
FOXO3a is a Forkhead transcription factor involved in cell longevity. In the skin, the negative regulation of FOXO3a accelerates the senescence of normal human fibroblasts (Hyun Kyoung K. et al. J. of Gerontol., 2005, vol. 60A n° 1, pages 4-9). This property was used to advantage to induce senescence in human fibroblasts by blocking FOXO3a expression by a specific interfering RNA (siRNA).
Human fibroblasts in culture are rendered senescent by treatment with a specific siRNA of FOXO3a at a final concentration of 25 nM using the Lipofectamine™ RNAiMAX (Invitrogen, Ref: 13778-075) transfection technique. Untreated controls are produced. The fibroblasts are treated in parallel by the peptide SEQ ID NO: 5 at a final concentration of 1% (using a stock solution at 40 mg/kg) for 48 hours.
The cells are rinsed and fixed in a fixation buffer (0.2% glutaraldehyde, 2% formaldehyde). The cells are then incubated at 37° C. without CO2 for 24 hours with an X-Gal solution at 1 mg/mL in 40 mM of citric acid/phosphate (pH 6), 5 mM K3FeCN6, 5 mM K4FeCN6, 150 mM NaCl and 2 mM MgCl2. […]

[8] = system: collagen I; assay: Collagen I immunolabeling in human skin samples cultivated ex vivo; conditions: topical 0.5%, 1% or 3% (stock solution 40 mg/kg), 24, 48 and/or 72 hours
Experimental: as §3, §4, §5, §6

[9] = system: Collagen I messenger RNAs; assay: Expression of collagen I messenger RNAs by real-time PCR in human fibroblasts; conditions: 0.5% and 1% (stock solution 40 mg/kg), 24, 48 and 72 hours, comparative Ct method, 18S control
Experimental: The objective of this study is to determine the influence of the peptide SEQ ID NO: 5 on the expression of collagen I messenger RNAs in the human fibroblasts. For this, the expression of collagen I was studied by real-time PCR.
Human fibroblasts in culture are treated with the peptide SEQ ID NO: 5 at final concentrations of 0.5% and 1% (using a stock solution at 40 mg/kg) for 24, 48 and 72 hours. The total RNAs are extracted using an extraction kit (QIAGEN), then reverse transcribed with a specific kit containing RNase inhibitors (Applied Biosystems). A real-time PCR is performed in a thermocycler using a specific Collagen I TaqMan Gene Expression Assay (Applied Biosystem, […]) and a specific 18S TaqMan Gene Expression Assay used as an endogenous control (Applied Biosystem, […]). The relative quantification of the expression of the Collagen I messenger RNAs is performed by the comparative Ct method (the Ct, the threshold cycle, is the intersection between the amplification curve and the threshold line).

[10] = system: P16; assay: Expression of senescence marker P16 in human fibroblasts (immunolabeling); conditions: 0.5% and 1% (stock solution 40 mg/kg), 48 hours
Experimental: The objective of this study is to determine the influence of the peptide SEQ ID NO: 5 on the expression of P16, a protein of which the expression in the skin increases with age. P16 is a protein involved in the negative regulation of the cellular cycle, which has been described as a reliable marker of cellular senescence (Brookes S. et al. Experimental Cell Research 298, 2004).
Human fibroblasts in culture are treated with the peptide SEQ ID NO: 5 at final concentrations of 0.5% and 1% (using a stock solution at 40 mg/kg) for 48 hours. The cells are prepared according to the Shandon Cytoblock® Cell preparation system kit (Thermo Scientific, Ref: 7401150).
The cells are then fixed with formaldehyde then embedded in paraffin. Sections of 4 μm are then produced. The labeling of p16 on the cells embedded in paraffin is performed after unmasking the specific sites. The immunolabelings are performed using a specific mouse p16 polyclonal antibody (Santa-Cruz, Ref: sc-81157), then an anti-mouse secondary antibody coupled with a fluorochrome (Invitrogen, Ref: A21202). The cells are then examined under the epifluorescence microscope (Nikon Eclipse E600 microscope).

[11] = system: pro-collagen; assay: Pro-collagen immunolabeling in human skin samples cultivated ex vivo; conditions: topical 0.5%, 1% or 3% (stock solution 40 mg/kg), 24, 48 and/or 72 hours
Experimental: as §3, §4, §5
The immunolabeling of the pro-collagen, on the samples embedded in OCT, is performed after fixing for 10 minutes with cold acetone. The immunolabeling is performed using a specific rat pro-collagen polyclonal antibody (Millipore, Ref: MAB 1912) then an anti-rat secondary antibody, coupled with a fluorescent marker (Invitrogen, A11006).
The cells are then examined under the epifluorescence microscope (Nikon Eclipse E600 microscope).

[12] = system: hyaluronic acid; assay: Hyaluronic acid labeling in human skin samples cultivated ex vivo; conditions: topical 0.5%, 1% or 3% (stock solution 40 mg/kg), 24, 48 and/or 72 hours
Experimental: as §3, §4, §5, §6

Substance | expression of hyaluronic acid [1] | expression of collagen III [2] | expression of pro-collagen [3] | expression of fibronectin [4] | expression of collagen I [5] | expression of collagen III in the dermis [6] | β-galactosidase activity (number of cells stained blue) [7] | expression of collagen I in the dermis [8] | expression of Collagen I messenger RNAs [9] | p16 immunolabeling, nuclear fluorescence (expression of the p16 senescence marker) [10] | expression of pro-collagen in the dermis [11] | expression of hyaluronic acid in the human dermis ([12]; dermis) | expression of hyaluronic acid in the human epidermis ([12]; epidermis)
Gly-Pro-Ala-Gly-Pro (GPAGP) [SEQ ID NO: 4] | stimulate the expression | stimulate the expression | stimulate the expression | stimulate the expression | stimulate the expression | – | – | – | – | – | – | – | –
Gly-Pro-Ala-Gly-Pro-NH2 (GPAGP-NH2) [SEQ ID NO: 5] | stimulate the expression | stimulate the expression | stimulate the expression | stimulate the expression | stimulate the expression | stimulates the expression | decrease in the β-galactosidase activity | stimulates the expression | stimulates the expression | less intense nuclear fluorescence | stimulates the expression | stimulates the expression | stimulates the expression
